Measured values as given in patent publication US20240024273A1, “TOPICAL ADMINISTRATION OF 2-(DIETHYLAMINO)ETHYL 2-(4-ISOBUTYLPHENYL)PROPRIONATE FOR TREATMENT OF DISEASES” (TECHFIELDS PHARMA CO., LTD., priority 2020, published 2024).

Tested on: osteoarthritis of the knee
Test: Second Phase 2 study: WOMAC overall score
Format: in vivo, human
Excerpt: This is a Phase 2, multicenter, randomized, double blind (within dose), Ibuprofen-placebo controlled, parallel group, dose range finding study to evaluate the efficacy, safety, and PK of 2-(diethylamino)ethyl 2-(4-isobutylphenyl)propionate spray in adult subjects with clinically symptomatic OA of the knee. For subjects with bilateral knee pain, both knees will be treated, but the most symptomatic knee (ie, the most painful knee as measured by the Western Ontario and McMaster University Osteoarthritis Index [WOMAC® 3.1] pain subscale score at Screening) will be designated as the target knee for efficacy analyses. For subjects with unilateral knee pain, only the symptomatic (target) knee will be treated.
The VAS version of the WOMAC will be used for the Primary and Secondary Efficacy Endpoints. Efficacy endpoints will be assessed at Screening and Baseline (Day 1) and at the Week 2, Week 4, Week 8, and Week 12/EOS visits.
4.9.2. Secondary Efficacy Endpoints: • 1. Change from Baseline in the WOMAC (VAS) pain subscale score for the target knee at 2, 8, and 12 weeks of treatment; • 2. Change from Baseline in the WOMAC (VAS) stiffness subscale scores for the target knee and WOMAC (VAS) functional ability subscale scores at 2, 4, 8, and 12 weeks of treatment; • 3. Change from Baseline in the overall WOMAC (VAS) score at 2, 4, 8, and 12 weeks of treatment; • 4. Subject's global assessment of disease status of the target knee at 2, 4, 8, and 12 weeks of treatment; • 5. Subject's global assessment of response to therapy of the target knee at 2, 4, 8, and 12 weeks of treatment; • 6. Amount of rescue medication (acetaminophen) consumed per day for target knee pain.
The Secondary Efficacy Endpoints, change from Baseline in the WOMAC subscale scores for pain, stiffness, and functional ability, and overall WOMAC score at 2, 4, 8, and 12 weeks of treatment, will be analyzed using the same methods as for the Primary Efficacy Endpoint.

[1] = 17.5 mg/knee BID, Week 12, first 130 subjects
[2] = Week 12, 4.375 mg/knee BID (n = 23), first 130 subjects
[3] = Week 12, 8.75 mg/knee BID (n = 24), first 130 subjects
[4] = Week 12, 17.5 mg/knee BID (n = 19), first 130 subjects
[5] = all subjects, 4.375 mg/knee BID, n = 49, Week 12
[6] = all subjects, 8.75 mg/knee BID, n = 54, Week 12
[7] = all subjects, 17.5 mg/knee BID, n = 52, Week 12
[8] = Week 12, oral, 3 × 400 mg (n = 20), first 130 subjects
[9] = all subjects, Oral Ibuprofen 3 × 400 mg, n = 48, Week 12

With `CCN(CC)CCOC(=O)C(C)c1ccc(CC(C)C)cc1` (stereo not drawn) [2-(diethylamino)ethyl 2-(4-isobutylphenyl)propionate] the “WOMAC overall, difference from oral ibuprofen” value [1] was −15.2 mm, the “WOMAC overall, difference from placebo” value [1] was −18.2 mm and the “efficacy vs oral ibuprofen (3×400 mg/day)” value (17.5 mg/knee BID, all subjects) was “higher efficacy than oral ibuprofen (3×400 mg/day), but not significantly”. The efficacy vs placebo (17.5 mg/knee BID, all subjects) was “higher efficacy than placebo significantly”, the “WOMAC Overall Scores, Baseline (LS Mean)” value (4.375 mg/knee BID (n = 23), first 130 subjects) was 59.3 mm and the “WOMAC Overall Scores, Baseline (LS Mean)” value (8.75 mg/knee BID (n = 24), first 130 subjects) was 60.7 mm. For the same compound, the “WOMAC Overall Scores, Baseline (LS Mean)” value (17.5 mg/knee BID (n = 19), first 130 subjects) was 63.4 mm, the “WOMAC Overall Scores, % of improvement from Oral Ibuprofen” value [2] was −10.1% and the “WOMAC Overall Scores, % of improvement from baseline” value [2] was −43.2%. The “WOMAC Overall Scores, % of improvement from placebo” value [2] was −13.0%, the “WOMAC Overall Scores, Changes from Baseline (LS Mean)” value (shortened to “WOMAC Overall Scores, Changes”) [2] was −25.6 mm and the “WOMAC Overall Scores, Different from oral ibuprofen (LS Mean)” value [2] was −4.1 mm. For the same compound, the “WOMAC Overall Scores, Different from placebo (LS Mean)” value [2] was −7.1 mm, the “WOMAC Overall Scores, Week 12 (LS Mean)” value [2] was 33.8 mm and the “WOMAC Overall Scores, % of improvement from Oral Ibuprofen” value [3] was −11.8%. For the same compound, the “WOMAC Overall Scores, % of improvement from baseline” value [3] was −45.1%, the “WOMAC Overall Scores, % of improvement from placebo” value [3] was −14.9% and the “WOMAC Overall Scores, Changes” value [3] was −27.4 mm. The “WOMAC Overall Scores, Different from oral ibuprofen (LS Mean)” value [3] was −5.9 mm, the “WOMAC Overall Scores, Different from placebo (LS Mean)” value [3] was −9.0 mm and the “WOMAC Overall Scores, Week 12 (LS Mean)” value [3] was 33.3 mm. The “WOMAC Overall Scores, % of improvement from Oral Ibuprofen” value [4] was −24.6%, the “WOMAC Overall Scores, % of improvement from baseline” value [4] was −57.7% and the “WOMAC Overall Scores, % of improvement from placebo” value [4] was −27.5%. For the same compound, the “WOMAC Overall Scores, Changes” value [4] was −36.6 mm, the “WOMAC Overall Scores, Different from oral ibuprofen (LS Mean)” value [4] was −15.2 mm and the “WOMAC Overall Scores, Different from placebo (LS Mean)” value [4] was −18.2 mm. For the same compound, the “WOMAC Overall Scores, Week 12 (LS Mean)” value [4] was 26.8 mm, the “WOMAC Overall Scores, % of improvement from Oral Ibuprofen” value [5] was −1.5% and the “WOMAC Overall Scores, % of improvement from baseline” value [5] was −42.8%. For the same compound, the “WOMAC Overall Scores, % of improvement from placebo” value [5] was −6.6%, the “WOMAC Overall Scores, Changes” value [5] was −25.4 mm and the “WOMAC Overall Scores, Week 12 (LS Mean)” value [5] was 34.0 mm. The “WOMAC Overall Scores, % of improvement from Oral Ibuprofen” value [6] was −4.6%, the “WOMAC Overall Scores, % of improvement from baseline” value [6] was −45.9% and the “WOMAC Overall Scores, % of improvement from placebo” value [6] was −9.7%. For the same compound, the “WOMAC Overall Scores, Changes” value [6] was −27.7 mm, the “WOMAC Overall Scores, Different from oral ibuprofen (LS Mean)” value [6] was −2.8 mm and the “WOMAC Overall Scores, Different from placebo (LS Mean)” value [6] was −6.4 mm. For the same compound, the “WOMAC Overall Scores, Week 12 (LS Mean)” value [6] was 32.7 mm, the “WOMAC Overall Scores, % of improvement from Oral Ibuprofen” value [7] was −10.6% and the “WOMAC Overall Scores, % of improvement from baseline” value [7] was −51.9%. The “WOMAC Overall Scores, % of improvement from placebo” value [7] was −15.7%, the “WOMAC Overall Scores, Changes” value [7] was −30.9 mm and the “WOMAC Overall Scores, Different from oral ibuprofen (LS Mean)” value [7] was −6.0 mm. For the same compound, the “WOMAC Overall Scores, Different from placebo (LS Mean)” value [7] was −9.6 mm, the “WOMAC Overall Scores, Week 12 (LS Mean)” value [7] was 28.6 mm and the “average scores in all six subscales” value (high dose group, Week 12) was “below 30 mm”.
In the case of `CC(C)Cc1ccc(C(C)C(=O)O)cc1` (stereo not drawn) [Ibuprofen, 2-(4-isobutylphenyl)propionic acid, reference compound], the “WOMAC Overall Scores, Baseline (LS Mean)” value (oral, 3 × 400 mg (n = 20), first 130 subjects) is reported as 65.0 mm, the “WOMAC Overall Scores, % of improvement from baseline” value [8] is reported as −33.1% and the “WOMAC Overall Scores, % of improvement from placebo” value [8] is reported as −2.9%. The “WOMAC Overall Scores, Changes” value [8] was −21.5 mm, the “WOMAC Overall Scores, Different from placebo (LS Mean)” value [8] was −3.1 mm and the “WOMAC Overall Scores, Week 12 (LS Mean)” value [8] was 43.5 mm. The “WOMAC Overall Scores, % of improvement from baseline” value [9] was −41.3%, the “WOMAC Overall Scores, % of improvement from placebo” value [9] was −5.1% and the “WOMAC Overall Scores, Changes” value [9] was −24.9 mm. The “WOMAC Overall Scores, Week 12 (LS Mean)” value [9] was 35.4 mm, the “WOMAC Total, difference vs. Placebo” value (all subjects, Oral Ibuprofen 3 × 400 mg, n = 48 vs. Placebo n = 48) was −3.6 mm and the “WOMAC overall, difference from placebo” value (oral 3×400 mg, first 130 subjects) was −3.0 mm.
